Measurements published in ChEMBL document CHEMBL1201862, “PubChem BioAssay data set” (2004).
“Also recorded” adds a separate entry of the source. Active and inactive are the calls of the source.

Assays:
[1] = target: T1, Heat shock factor protein 1 (Mus musculus, UniProt P38532); assay: inhibition of MG132-induced HSE-luciferase signal, confirmation, cell-based, NIH3T3, luminescence, dose retest (AID 2382); assay type: functional;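 note: NIH3T3 fibroblasts with HSF1-driven luciferase reporter stressed by proteasome inhibitor MG132; luminescence from HSF1-driven luciferase expression after 8 hours of MG132 stress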
T1 sequence (P38532 whole entry): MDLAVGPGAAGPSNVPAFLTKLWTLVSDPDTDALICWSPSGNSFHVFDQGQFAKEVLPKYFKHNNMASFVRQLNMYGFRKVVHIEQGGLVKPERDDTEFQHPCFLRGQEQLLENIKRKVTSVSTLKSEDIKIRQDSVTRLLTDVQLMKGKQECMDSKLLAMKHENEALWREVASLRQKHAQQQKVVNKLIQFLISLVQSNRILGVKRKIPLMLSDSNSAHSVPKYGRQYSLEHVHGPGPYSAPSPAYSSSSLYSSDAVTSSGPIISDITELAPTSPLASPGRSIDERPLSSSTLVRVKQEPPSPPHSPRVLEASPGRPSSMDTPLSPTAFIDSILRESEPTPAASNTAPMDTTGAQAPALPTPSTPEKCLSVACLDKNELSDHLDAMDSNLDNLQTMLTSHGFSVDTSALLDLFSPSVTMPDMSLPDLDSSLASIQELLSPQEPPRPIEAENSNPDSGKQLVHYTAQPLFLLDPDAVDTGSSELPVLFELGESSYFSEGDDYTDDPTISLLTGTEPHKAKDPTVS

[2] = growth induction of Burl-1 ts yeast mutant, dose response, counter-screen for SUMOylation pathway inhibitor project, whole organism, S. cerevisiae, luminescence (AID 463199); assay type: functional
[3] = target: DNA dC->dU-editing enzyme APOBEC-3G (Homo sapiens, UniProt Q9HC16); assay: Dose Response confirmation of small molecule APOBEC3G DNA Deaminase Inhibitors via a fluorescence-based single-stranded DNA deaminase assay. [Related pubchem assays (depositor defined):AID493012, AID493028]; assay type: functional
[4] = target: T2, Rac GTPase-activating protein 1 (Homo sapiens, UniProt Q9H0H5); assay: MgcRacGAP GTPase-activating activity inhibitors, confirmation, biochemical, ADP Hunter fluorescence, primary and confirmatory (AID 624330); assay type: functional
T2 sequence (Q9H0H5 whole entry): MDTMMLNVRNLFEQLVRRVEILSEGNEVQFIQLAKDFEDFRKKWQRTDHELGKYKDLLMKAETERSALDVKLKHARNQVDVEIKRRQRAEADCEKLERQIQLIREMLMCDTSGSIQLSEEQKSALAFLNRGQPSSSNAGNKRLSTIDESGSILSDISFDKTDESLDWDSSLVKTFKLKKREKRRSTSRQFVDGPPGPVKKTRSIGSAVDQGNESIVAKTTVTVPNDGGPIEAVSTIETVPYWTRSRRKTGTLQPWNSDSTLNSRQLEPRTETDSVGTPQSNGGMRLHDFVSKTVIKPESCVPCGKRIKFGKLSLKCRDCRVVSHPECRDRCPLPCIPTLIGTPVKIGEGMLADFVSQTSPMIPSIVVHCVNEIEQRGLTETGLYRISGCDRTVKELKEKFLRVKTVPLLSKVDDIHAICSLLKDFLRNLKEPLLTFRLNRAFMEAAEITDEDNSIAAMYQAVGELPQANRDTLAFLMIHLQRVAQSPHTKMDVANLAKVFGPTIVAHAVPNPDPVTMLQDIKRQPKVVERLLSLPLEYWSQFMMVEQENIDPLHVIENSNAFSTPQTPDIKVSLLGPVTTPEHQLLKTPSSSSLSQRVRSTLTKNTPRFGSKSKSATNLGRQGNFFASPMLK

[5] = target: DNA dC->dU-editing enzyme APOBEC-3A (Homo sapiens, UniProt P31941); assay: APOBEC3A DNA deaminase inhibitors, dose response, biochemical (AID 504722); assay type: functional
[6] = target: RNA-editing ligase 1, mitochondrial (Trypanosoma brucei brucei, UniProt P86926); assay: TbREL1 ligase inhibitors, dose response, biochemical, fluorescence, Trypanosoma brucei (AID 1117295); assay type: functional
Chain of RNA-editing ligase 1, mitochondrial (P86926 whole entry): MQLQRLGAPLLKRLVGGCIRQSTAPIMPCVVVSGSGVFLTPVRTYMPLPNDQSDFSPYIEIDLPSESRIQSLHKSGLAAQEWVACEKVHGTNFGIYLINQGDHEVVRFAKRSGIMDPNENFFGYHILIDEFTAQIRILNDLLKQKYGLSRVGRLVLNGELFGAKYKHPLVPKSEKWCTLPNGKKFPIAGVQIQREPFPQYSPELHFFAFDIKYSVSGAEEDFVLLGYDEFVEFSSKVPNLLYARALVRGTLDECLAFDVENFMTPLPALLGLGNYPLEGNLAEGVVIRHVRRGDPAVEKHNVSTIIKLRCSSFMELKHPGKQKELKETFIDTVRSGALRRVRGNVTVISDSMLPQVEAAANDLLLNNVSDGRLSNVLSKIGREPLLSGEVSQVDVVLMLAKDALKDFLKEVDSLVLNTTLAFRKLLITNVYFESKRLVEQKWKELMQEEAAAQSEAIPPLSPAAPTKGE

[7] = target: Lysine-specific demethylase 4C (Homo sapiens, UniProt Q9H3R0); assay: GASC-1 (JMJD2C) histone demethylase inhibitors, dose response, biochemical, DELFIA europium, cherry-picked samples (AID 488835); assay type: functional
[8] = target: T3, Apoptotic protease-activating factor 1 (Homo sapiens, UniProt O14727); assay type: functional
T3 sequence (O14727 whole entry): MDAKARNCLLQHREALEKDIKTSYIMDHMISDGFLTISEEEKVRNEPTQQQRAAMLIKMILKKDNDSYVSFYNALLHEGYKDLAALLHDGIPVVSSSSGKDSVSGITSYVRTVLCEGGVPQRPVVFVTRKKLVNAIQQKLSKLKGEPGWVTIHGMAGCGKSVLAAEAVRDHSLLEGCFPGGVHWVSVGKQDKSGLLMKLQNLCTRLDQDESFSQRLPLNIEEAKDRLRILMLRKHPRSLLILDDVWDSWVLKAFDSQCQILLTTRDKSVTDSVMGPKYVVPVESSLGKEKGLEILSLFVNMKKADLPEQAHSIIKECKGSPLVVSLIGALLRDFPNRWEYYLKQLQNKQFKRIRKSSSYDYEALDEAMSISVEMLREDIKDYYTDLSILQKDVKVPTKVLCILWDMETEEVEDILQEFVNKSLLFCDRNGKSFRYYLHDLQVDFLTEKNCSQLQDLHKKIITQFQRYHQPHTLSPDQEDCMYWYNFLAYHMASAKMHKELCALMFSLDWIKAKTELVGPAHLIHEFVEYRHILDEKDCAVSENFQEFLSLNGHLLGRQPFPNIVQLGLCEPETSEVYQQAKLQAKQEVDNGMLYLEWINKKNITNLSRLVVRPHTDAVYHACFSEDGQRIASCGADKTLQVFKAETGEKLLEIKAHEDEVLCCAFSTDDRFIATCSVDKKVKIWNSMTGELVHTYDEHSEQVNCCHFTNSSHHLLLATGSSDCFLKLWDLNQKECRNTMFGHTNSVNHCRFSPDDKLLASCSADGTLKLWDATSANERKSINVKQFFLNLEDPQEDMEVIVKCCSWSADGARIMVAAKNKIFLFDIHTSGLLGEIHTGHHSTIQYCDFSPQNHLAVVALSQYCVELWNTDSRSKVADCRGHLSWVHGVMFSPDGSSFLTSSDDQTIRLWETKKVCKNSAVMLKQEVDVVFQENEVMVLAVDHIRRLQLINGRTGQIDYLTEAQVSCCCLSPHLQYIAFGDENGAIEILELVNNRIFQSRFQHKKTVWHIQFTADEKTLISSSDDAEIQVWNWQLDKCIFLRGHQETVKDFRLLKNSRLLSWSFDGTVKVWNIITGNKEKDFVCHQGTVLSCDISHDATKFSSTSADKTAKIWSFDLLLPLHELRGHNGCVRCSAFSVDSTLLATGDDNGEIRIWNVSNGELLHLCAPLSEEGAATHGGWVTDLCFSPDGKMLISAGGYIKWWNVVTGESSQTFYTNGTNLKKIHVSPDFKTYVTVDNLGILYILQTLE

INS1 = assay: beta cell apoptosis inhibitors, cytokine rescue, dose response, luminescence, retest (AID 449756); assay type: functional, cell-based; conditions: Rattus norvegicus;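 note: cell death triggered by IL-1 beta plus TNF-alpha plus IFN-gamma mixture; protective hits raise ATP signal compared with cytokine alone wells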
[9] = target: Heat shock protein HSP 90-alpha (Homo sapiens, UniProt P07900); assay type: functional, organism-based
Cytochrome P450 1A2 [10] = target: T4, Cytochrome P450 1A2 (Homo sapiens, UniProt P05177);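 note: PubChem cytochrome P450 panel assay, CYP1A2 panel member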
T4 sequence (P05177 whole entry): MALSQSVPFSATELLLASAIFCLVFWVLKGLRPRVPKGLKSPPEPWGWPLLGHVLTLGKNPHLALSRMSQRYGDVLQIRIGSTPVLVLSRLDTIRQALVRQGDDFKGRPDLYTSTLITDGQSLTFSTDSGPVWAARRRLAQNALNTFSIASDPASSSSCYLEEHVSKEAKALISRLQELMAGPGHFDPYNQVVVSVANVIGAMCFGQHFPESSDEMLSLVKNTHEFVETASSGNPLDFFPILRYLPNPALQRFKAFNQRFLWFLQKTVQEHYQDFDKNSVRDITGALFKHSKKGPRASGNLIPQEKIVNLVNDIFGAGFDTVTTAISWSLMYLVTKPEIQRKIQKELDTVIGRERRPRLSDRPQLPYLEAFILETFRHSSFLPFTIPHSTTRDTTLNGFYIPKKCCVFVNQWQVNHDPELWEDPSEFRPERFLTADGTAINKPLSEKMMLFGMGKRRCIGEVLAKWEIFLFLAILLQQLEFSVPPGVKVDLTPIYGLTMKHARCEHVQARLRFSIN

Cytochrome P450 2C19 = Cytochrome P450 2C19 (Homo sapiens, UniProt P33261); assay: Cytochrome panel assay with activity outcomes. Panel member name: p450-cyp2c19 Compounds with AC50 equal or less than 10 uM are considered active; assay type: functional
Chain of Cytochrome P450 2C19 (P33261 whole entry): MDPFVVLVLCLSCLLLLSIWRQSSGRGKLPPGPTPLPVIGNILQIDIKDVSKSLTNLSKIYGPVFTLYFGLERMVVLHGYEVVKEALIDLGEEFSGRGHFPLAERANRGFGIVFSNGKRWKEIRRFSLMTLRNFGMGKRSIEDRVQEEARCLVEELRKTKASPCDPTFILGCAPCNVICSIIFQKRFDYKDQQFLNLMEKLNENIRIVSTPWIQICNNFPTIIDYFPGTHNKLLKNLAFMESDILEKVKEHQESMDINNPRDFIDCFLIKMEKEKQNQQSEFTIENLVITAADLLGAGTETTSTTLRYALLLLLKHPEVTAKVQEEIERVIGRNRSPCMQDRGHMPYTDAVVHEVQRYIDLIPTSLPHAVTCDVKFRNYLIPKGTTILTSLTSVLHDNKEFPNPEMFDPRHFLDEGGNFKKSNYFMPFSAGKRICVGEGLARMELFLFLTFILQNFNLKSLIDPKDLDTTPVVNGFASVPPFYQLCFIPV

[11] = Counterscreen for AddAB inhibitors: absorbance-based bacterial cell-based high throughput dose response assay for inhibitors of bacterial viability. [Related pubchem assays (depositor defined):AID435030, AID449728, AID449731, AID488942, AID488955, AID488956]; assay type: functional
[12] = Luminescent dose response cell-based high throughput screening assay for inhibitors of the Janus kinase 2 mutant JAK2V617F. [Related pubchem assays: 1446 (Primary screen.), 1521 (Confirmation assay.), 1486 (Counter screen.)]; assay type: functional
[13] = inhibitors of firefly luciferase expression or activity, dose response, H4 neuroglioma cells, luminescence (AID 1990); assay type: functional, cell-based
Phospholipase A2 = Phospholipase A2 (Homo sapiens, UniProt P04054); assay type: functional;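 note: confirmatory dose-response counterscreen on phospholipase A2, testing hits that came from an ultra-high-throughput screen for ATG4B inhibitors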
Chain of Phospholipase A2 (P04054 whole entry): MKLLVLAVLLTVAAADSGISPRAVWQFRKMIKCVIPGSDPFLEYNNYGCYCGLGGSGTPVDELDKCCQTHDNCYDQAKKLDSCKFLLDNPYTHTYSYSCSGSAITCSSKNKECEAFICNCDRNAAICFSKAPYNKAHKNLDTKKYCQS

Cysteine protease ATG4B = target: T5, Cysteine protease ATG4B (Homo sapiens, UniProt Q9Y4P1); assay type: functional;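 note: Fluorescence-based dose-response confirmation assay measuring inhibition of ATG4B activity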
T5 sequence (Q9Y4P1 whole entry): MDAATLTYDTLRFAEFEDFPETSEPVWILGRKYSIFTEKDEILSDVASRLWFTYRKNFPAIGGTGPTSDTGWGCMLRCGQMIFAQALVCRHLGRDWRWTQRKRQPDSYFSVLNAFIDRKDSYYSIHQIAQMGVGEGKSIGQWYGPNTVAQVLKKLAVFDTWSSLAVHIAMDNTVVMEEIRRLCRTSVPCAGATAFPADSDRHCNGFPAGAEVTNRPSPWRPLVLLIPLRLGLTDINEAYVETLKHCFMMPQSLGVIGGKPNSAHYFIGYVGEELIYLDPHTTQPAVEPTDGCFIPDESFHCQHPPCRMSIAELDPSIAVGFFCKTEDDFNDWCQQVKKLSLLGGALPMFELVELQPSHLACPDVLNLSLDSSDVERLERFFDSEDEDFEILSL

Exodeoxyribonuclease V = Exodeoxyribonuclease V (Escherichia coli (strain K12), UniProt P04993+P07648+P08394); assay: E. coli RecBCD inhibitors, dose response, counter-screen for AddAB inhibitor project, absorbance, V66 E. coli, mutant T4 phage (AID 492957); assay type: functional, cell-based, Escherichia coli str. K-12 substr. MG1655
Chain of Exodeoxyribonuclease V (P04993 whole entry): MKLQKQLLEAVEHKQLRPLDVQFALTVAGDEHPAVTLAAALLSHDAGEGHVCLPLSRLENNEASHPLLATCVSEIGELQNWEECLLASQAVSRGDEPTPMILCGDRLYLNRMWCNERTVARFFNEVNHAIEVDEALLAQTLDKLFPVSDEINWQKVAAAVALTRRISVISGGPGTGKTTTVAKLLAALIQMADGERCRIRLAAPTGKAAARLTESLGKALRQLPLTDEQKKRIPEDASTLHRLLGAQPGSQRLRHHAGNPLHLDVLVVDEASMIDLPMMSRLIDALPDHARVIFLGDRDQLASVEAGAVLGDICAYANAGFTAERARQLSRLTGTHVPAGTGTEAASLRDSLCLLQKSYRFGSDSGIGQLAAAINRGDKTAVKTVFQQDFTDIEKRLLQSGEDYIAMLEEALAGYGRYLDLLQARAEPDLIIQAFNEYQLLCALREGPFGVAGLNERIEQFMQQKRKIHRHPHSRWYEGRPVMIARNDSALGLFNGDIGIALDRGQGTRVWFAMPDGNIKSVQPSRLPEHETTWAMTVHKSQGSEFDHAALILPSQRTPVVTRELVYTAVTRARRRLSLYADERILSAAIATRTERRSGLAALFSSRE
Chain of Exodeoxyribonuclease V (P07648 whole entry): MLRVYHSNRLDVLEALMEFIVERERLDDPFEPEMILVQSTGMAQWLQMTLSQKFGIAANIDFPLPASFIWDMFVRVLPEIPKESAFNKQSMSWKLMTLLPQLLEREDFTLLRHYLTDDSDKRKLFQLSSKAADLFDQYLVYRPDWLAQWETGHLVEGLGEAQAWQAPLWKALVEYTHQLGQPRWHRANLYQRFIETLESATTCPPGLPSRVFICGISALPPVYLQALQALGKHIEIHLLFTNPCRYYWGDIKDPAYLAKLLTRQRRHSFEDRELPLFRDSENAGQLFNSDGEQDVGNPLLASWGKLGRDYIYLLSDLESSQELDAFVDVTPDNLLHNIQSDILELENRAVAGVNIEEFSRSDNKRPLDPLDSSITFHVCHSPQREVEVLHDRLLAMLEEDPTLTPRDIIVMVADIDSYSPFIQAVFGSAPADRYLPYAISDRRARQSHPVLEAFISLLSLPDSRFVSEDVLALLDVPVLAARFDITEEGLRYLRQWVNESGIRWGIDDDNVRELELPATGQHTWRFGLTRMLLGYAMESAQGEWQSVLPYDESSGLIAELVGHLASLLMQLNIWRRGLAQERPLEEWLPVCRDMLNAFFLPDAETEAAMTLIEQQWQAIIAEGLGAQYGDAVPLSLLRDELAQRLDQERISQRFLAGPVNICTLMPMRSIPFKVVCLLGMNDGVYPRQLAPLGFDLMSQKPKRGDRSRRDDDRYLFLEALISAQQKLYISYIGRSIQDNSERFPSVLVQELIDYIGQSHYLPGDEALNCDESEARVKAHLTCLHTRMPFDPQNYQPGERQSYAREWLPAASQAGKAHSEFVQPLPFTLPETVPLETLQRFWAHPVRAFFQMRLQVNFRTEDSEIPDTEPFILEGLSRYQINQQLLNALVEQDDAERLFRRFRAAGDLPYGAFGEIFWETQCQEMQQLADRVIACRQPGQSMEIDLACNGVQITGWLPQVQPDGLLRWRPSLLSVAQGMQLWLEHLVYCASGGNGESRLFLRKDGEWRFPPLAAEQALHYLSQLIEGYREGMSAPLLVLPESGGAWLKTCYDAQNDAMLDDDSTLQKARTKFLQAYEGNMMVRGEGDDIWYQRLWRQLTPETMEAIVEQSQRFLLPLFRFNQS
Chain of Exodeoxyribonuclease V (P08394 whole entry): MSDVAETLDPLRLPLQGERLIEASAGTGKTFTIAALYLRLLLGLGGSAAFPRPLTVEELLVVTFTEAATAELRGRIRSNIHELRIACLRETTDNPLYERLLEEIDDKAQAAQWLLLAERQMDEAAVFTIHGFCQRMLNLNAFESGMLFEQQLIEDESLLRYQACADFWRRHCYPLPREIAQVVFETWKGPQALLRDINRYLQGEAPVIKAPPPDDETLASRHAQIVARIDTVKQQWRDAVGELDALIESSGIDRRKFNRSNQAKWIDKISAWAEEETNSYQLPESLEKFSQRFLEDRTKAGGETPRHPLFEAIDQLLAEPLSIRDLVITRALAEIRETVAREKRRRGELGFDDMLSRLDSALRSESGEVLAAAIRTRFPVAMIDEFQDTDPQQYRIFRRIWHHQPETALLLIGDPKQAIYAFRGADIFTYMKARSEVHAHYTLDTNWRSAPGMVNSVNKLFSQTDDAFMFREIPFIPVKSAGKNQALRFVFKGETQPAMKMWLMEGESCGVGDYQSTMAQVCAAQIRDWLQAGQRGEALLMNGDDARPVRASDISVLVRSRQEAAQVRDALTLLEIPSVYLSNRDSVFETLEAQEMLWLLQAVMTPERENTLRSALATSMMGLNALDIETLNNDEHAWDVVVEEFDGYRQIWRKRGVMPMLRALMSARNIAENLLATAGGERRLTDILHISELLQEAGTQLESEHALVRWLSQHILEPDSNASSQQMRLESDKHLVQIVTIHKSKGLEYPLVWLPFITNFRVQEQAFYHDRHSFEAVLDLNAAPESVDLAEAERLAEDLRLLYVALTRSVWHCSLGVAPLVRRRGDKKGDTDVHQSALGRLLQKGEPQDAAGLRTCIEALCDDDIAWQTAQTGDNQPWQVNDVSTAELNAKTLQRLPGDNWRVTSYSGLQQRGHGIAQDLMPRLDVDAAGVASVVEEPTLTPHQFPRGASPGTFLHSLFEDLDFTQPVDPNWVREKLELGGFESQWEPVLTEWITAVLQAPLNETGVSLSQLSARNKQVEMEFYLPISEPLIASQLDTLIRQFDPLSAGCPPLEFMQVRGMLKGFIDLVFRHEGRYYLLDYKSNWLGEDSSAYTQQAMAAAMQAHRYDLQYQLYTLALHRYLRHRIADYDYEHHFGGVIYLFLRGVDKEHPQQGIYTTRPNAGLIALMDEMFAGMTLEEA

[14] = Luminescence Cell-Based Dose Retest to Confirm Inhibitors of Cancer Stem Cells. [Related pubchem assays (depositor defined):AID2717, AID2721]; assay type: functional; conditions: Homo sapiens
[15] = Luminescence Cell-Based Dose Response HTS to Identify Inhibitors of 5'UTR Stem-Loop Driven Prion Protein mRNA Translation in H4 Neuroglioblastoma Cells. [Related pubchem assays: 1827 (Project Summary), 1813 (Primary HTS)]; assay type: functional
[16] = inhibitors of SNCA 5'UTR-driven reporter translation, confirmation, H4 neuroglioma cells, luminescence (AID 1988); assay type: functional, cell-based
Cytochrome P450 2C9 = Cytochrome P450 2C9 (Homo sapiens, UniProt P11712)
Cytochrome P450 2D6 [17] = target: T6, Cytochrome P450 2D6 (Homo sapiens, UniProt P10635); assay: qHTS Assay for Inhibitors and Substrates of Cytochrome P450 2D6. [Related pubchem assays: 410 ]; assay type: ADME; conditions: read-out: Potency
T6 sequence (P10635 whole entry): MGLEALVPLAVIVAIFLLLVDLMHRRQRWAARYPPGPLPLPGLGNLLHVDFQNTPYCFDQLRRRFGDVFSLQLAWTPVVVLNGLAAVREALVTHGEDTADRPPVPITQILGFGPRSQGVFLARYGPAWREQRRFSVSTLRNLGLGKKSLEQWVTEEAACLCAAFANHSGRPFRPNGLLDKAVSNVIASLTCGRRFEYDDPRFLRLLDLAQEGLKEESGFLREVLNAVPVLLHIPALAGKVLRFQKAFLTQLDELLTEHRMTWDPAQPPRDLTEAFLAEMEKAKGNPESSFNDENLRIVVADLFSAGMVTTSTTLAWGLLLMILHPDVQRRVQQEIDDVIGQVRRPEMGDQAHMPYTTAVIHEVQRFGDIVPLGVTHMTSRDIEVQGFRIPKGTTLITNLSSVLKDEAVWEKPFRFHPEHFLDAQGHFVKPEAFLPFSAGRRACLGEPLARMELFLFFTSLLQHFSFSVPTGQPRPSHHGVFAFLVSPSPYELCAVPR

Cytochrome P450 1A2 [18] = target: T4, Cytochrome P450 1A2; remark: listed apart in the source
Cytochrome P450 3A4 [19] = target: T7, Cytochrome P450 3A4 (Homo sapiens, UniProt P08684);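 note: CYP3A4 tested as one member of a cytochrome P450 panel screen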
T7 sequence (P08684 whole entry): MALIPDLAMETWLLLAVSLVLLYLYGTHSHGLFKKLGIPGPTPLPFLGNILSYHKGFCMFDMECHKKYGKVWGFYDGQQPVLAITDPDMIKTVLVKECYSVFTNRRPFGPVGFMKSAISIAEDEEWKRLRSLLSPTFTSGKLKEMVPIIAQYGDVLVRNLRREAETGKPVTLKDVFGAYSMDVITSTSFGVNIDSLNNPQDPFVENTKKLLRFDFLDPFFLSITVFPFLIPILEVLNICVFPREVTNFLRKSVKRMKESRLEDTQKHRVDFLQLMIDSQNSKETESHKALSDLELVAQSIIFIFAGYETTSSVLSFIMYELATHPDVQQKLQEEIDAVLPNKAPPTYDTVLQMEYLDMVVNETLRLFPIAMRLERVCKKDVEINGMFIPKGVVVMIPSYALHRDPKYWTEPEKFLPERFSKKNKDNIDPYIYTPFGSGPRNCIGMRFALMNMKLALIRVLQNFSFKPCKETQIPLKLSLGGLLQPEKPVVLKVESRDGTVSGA

Cytochrome P450 2D6 [20] = target: T6, Cytochrome P450 2D6
Cytochrome P450 3A4 [21] = target: T7, Cytochrome P450 3A4; remark: listed apart in the source

O=C(c1ccc([N+](=O)[O-])cc1)N1CCN(c2ncc(Br)cn2)CC1
EC50 [1]: > 195 µM (not active)
AC50 [2]: 72.3 µM (active)

CCNCCNC(=O)c1c(O)nc2c(c1O)CCCC2
AC50 [2]: 73.1 µM (active)

Cc1nnc(N=c2ssnc2Cl)o1
IC50 [3]: 4.6 µM (active)
IC50 [4]: 69.6 µM (active)
IC50 [5]: > 100 µM (inactive)
IC50 [6]: 79 µM (inactive)
AC50 [7]: 6.06 µM (active)
IC50 [8]: 16 µM (active)
AC50 (INS1): 3.77 µM (active)
AC50 [9]: 3.13 µM (active)

COc1cc2nc(N3CCN(C(=O)[C@@H]4COc5ccccc5O4)CC3)nc(N)c2cc1OC.CS(=O)(=O)O
AC50 (Cytochrome P450 1A2 [10]): inactive
AC50 (Cytochrome P450 2C19; read-out: AC50): 0.501 µM (inconclusive)

COc1cccc(/C=N/NC(=O)c2[nH]c(C)c(C(=O)N/N=C/c3cccc(OC)c3O)c2C)c1O
IC50 [11]: > 119 µM (inactive)
IC50 [12]: 2.8 µM (active)
EC50 [13]: 9.94 µM (active)
IC50 (Phospholipase A2): 9.88 µM (active)
IC50 (Cysteine protease ATG4B): 7.03 µM (active)
IC50 (Exodeoxyribonuclease V): > 119 µM (inactive)
AC50 [14]: 2.44 µM (active)
EC50 [15]: 18.9 µM (active)
EC50 [16]: 15.3 µM (active)

N[C@H](CCC(=O)O)C(=O)O [D-GLUTAMATE]
AC50 (Cytochrome P450 2C9): inactive
AC50 (Cytochrome P450 2D6 [17]): 10 µM (not active)
AC50 (Cytochrome P450 1A2 [18]): 31.6 µM (inconclusive)
AC50 (Cytochrome P450 3A4 [19]): 25.1 µM (inconclusive)
AC50 (Cytochrome P450 2D6 [20]): inactive; also recorded: inconclusive
AC50 (Cytochrome P450 1A2 [10]): inactive
AC50 (Cytochrome P450 2C19): inactive
AC50 (Cytochrome P450 3A4 [21]): inactive
